Laboratory results taken from PMC2697495 (The Journal of pharmacy and pharmacology, 2008).
Marks after values point to notes of the source that are not given here.

Assays:
[1] = test system: pooled human liver microsomes (pHLMs); experiment: Estradiol-3 glucuronidation by pHLMs; assay type: biochemical; details: for Estradiol-3 glucuronidation, % of the control activity (measured at 0 mM): pHLM, 100 μM estradiol, n=3
UGT1A4 = molecular target: T1, UGT1A4 (Homo sapiens, UniProt P22310); experiment: Trifluoperazine glucuronidation by recombinant UGT1A4; assay type: biochemical; details: for Trifluoperazine glucuronidation, % of the control activity (measured at 0 mM): UGT1A4, 200 μM trifluoperazine, n=3
T1 sequence (P22310 29-534): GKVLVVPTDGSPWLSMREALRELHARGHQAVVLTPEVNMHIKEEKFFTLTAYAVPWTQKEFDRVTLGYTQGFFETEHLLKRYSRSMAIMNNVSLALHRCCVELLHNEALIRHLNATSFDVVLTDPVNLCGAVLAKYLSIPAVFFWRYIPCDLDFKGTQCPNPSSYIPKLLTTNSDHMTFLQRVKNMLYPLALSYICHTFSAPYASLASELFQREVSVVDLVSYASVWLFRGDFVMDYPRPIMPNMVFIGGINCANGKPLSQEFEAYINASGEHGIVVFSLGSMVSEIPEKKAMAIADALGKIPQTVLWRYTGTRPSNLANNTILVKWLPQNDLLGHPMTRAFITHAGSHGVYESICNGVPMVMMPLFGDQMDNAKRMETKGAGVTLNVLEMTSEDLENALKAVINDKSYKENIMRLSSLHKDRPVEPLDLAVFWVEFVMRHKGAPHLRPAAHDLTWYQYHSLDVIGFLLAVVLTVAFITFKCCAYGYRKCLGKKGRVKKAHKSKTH

UGT2B7 = molecular target: T2, UGT2B7 (Homo sapiens, UniProt P16662); experiment: AZT glucuronidation by recombinant UGT2B7; assay type: biochemical; details: 500 μM AZT, n=3
T2 sequence (P16662 24-529): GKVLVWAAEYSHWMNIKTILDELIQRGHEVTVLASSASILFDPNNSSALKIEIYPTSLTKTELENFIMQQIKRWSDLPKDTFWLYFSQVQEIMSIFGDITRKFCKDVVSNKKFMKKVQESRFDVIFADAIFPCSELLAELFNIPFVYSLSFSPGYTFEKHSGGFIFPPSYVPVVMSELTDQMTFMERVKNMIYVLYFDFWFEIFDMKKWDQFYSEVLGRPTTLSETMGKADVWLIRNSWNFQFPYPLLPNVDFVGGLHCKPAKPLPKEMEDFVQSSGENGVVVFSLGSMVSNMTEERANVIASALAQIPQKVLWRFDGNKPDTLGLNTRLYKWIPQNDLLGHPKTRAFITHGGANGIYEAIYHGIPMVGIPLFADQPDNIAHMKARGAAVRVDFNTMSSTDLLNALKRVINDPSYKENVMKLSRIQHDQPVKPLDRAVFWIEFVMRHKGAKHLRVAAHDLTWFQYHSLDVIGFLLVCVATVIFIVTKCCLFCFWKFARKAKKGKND

[2] = test system: pooled human liver microsomes (pHLMs); experiment: Estradiol-17 glucuronidation by pHLMs; assay type: biochemical; details: pHLM, 100 μM estradiol, n=3
rat liver microsomes = details: 4 mM saccharolactone, ref Brunelle & Verbeeck 1993; cited from earlier work
UGT2B4 = UGT2B4 (Homo sapiens, UniProt P06133); experiment: Codeine glucuronidation by recombinant UGT2B4; assay type: biochemical; details: 1 mM codeine, n=3
[3] = test system: pooled human liver microsomes (pHLMs); experiment: Trifluoperazine glucuronidation by pHLMs; assay type: biochemical; details: pHLM, 200 μM trifluoperazine, n=3
UGT1A6 (HEK293) = molecular target: T3, UGT1A6 (HEK293) (Homo sapiens, UniProt P19224); experiment: 5-HT glucuronidation by recombinant UGT1A6; assay type: biochemical; details: for 5-HT glucuronidation, % of the control activity (measured at 0 mM): UGT1A6 (HEK293), 4 mM 5-HT, n=3
T3 sequence (P19224 27-532): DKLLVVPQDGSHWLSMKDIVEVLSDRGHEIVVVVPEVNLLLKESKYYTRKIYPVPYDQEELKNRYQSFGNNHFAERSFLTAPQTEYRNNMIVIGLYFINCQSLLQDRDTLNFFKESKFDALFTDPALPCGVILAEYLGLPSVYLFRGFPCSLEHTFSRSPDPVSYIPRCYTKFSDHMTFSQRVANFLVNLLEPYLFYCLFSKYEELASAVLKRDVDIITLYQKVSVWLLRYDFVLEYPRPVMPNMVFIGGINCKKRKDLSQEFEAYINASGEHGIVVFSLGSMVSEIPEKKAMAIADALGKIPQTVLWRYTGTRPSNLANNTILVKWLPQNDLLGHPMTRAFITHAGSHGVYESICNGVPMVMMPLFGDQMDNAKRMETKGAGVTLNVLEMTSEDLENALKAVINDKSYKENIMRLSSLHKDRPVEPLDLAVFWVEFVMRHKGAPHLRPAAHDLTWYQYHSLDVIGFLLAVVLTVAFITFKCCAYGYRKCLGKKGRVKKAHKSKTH

UGT1A9 = UGT1A9 (Homo sapiens, UniProt O60656); experiment: Salicylic acid; assay type: biochemical; details: 5 mM salicylic acid, n=3
[4] = test system: pooled human liver microsomes (pHLMs); experiment: AZT glucuronidation by pHLMs; assay type: biochemical; details: pHLM, 500 μM AZT, n=3

UGT2B4, sequence (P06133 24-528): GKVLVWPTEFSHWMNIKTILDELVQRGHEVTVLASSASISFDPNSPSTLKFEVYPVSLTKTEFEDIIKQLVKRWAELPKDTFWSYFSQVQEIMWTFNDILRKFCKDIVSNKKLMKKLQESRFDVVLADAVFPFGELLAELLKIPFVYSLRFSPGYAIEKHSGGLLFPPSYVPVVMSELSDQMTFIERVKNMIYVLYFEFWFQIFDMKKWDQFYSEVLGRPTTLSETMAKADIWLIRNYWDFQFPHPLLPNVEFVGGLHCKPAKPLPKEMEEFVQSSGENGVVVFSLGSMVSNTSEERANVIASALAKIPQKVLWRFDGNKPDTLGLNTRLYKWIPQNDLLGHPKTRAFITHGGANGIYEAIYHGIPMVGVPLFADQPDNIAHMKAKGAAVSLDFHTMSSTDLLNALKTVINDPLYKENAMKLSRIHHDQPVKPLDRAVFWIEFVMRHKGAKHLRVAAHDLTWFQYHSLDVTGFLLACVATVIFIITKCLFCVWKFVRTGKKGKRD
UGT1A9, sequence (O60656 26-530): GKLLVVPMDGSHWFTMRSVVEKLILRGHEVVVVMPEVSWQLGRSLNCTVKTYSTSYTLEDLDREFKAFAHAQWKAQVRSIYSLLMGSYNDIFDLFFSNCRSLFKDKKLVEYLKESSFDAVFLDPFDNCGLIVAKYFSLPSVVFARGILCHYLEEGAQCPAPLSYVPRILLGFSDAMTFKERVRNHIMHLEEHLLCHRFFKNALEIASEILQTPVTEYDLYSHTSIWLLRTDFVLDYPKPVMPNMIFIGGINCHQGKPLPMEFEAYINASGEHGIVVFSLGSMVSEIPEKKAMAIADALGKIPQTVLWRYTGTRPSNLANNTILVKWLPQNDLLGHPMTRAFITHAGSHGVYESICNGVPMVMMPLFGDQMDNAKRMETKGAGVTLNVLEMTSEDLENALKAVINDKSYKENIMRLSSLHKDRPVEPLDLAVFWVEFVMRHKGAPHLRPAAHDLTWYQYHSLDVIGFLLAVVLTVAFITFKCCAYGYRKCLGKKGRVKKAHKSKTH

## O=C(O)[C@@H](O)[C@H]1OC(=O)[C@H](O)[C@H]1O [saccharolactone, D-saccharic acid 1,4-lactone]
[1]; 1 mM saccharolactone
  Estradiol-3 glucuronidation, % of the control activity (measured at 0 mM): 68±5%
[1]; 2 mM saccharolactone
  Estradiol-3 glucuronidation, % of the control activity (measured at 0 mM): 84±1%
[1]; 5 mM saccharolactone
  Estradiol-3 glucuronidation, % of the control activity (measured at 0 mM): 76±9 ^a %
[1]; 10 mM saccharolactone
  Estradiol-3 glucuronidation, % of the control activity (measured at 0 mM): 67±5 ^a %
[1]; 20 mM saccharolactone
  Estradiol-3 glucuronidation, % of the control activity (measured at 0 mM): 67±7 ^a %
[1]; pHLMs, 20 mM saccharolactone, p<0.05
  decrease in estradiol-3 glucuronidation activity: 33%
UGT1A4; 5 mM saccharolactone
  Trifluoperazine glucuronidation, % of the control activity (measured at 0 mM): 90±4%
UGT1A4; 20 mM saccharolactone
  Trifluoperazine glucuronidation, % of the control activity (measured at 0 mM): 82±5 ^a %
UGT1A4; human, pH 7.5, probe trifluoperazine
  inhibition at 20 mM: 18%
UGT2B7; 5 mM saccharolactone
  AZT glucuronidation, % of the control activity (measured at 0 mM): 102±2%
UGT2B7; 20 mM saccharolactone
  AZT glucuronidation, % of the control activity (measured at 0 mM): 102±8%
[2]; 1 mM saccharolactone
  Estradiol-17 glucuronidation, % of the control activity (measured at 0 mM): 71±4 ^a %
[2]; 2 mM saccharolactone
  Estradiol-17 glucuronidation, % of the control activity (measured at 0 mM): 81±8%
[2]; 5 mM saccharolactone
  Estradiol-17 glucuronidation, % of the control activity (measured at 0 mM): 78±7 ^a %
[2]; 10 mM saccharolactone
  Estradiol-17 glucuronidation, % of the control activity (measured at 0 mM): 68±2%
[2]; 20 mM saccharolactone
  Estradiol-17 glucuronidation, % of the control activity (measured at 0 mM): 66±6 ^a %
Rat liver microsomes
  change in diflunisal phenol glucuronide formation: no change
  increase of diflunisal acyl glucuronide formation (Vmax): 2 fold
UGT2B4; 5 mM saccharolactone
  Codeine glucuronidation, % of the control activity (measured at 0 mM): 91±4%
UGT2B4; 20 mM saccharolactone
  Codeine glucuronidation, % of the control activity (measured at 0 mM): 88±2%
[3]; 1 mM saccharolactone
  Trifluoperazine glucuronidation, % of the control activity (measured at 0 mM): 98±5%
[3]; 2 mM saccharolactone
  Trifluoperazine glucuronidation, % of the control activity (measured at 0 mM): 101±9%
[3]; 5 mM saccharolactone
  Trifluoperazine glucuronidation, % of the control activity (measured at 0 mM): 95±3%
[3]; 10 mM saccharolactone
  Trifluoperazine glucuronidation, % of the control activity (measured at 0 mM): 93±4%
[3]; 20 mM saccharolactone
  Trifluoperazine glucuronidation, % of the control activity (measured at 0 mM): 97±5%
UGT1A6 (HEK293); 5 mM saccharolactone
  5-HT glucuronidation, % of the control activity (measured at 0 mM): 91±6%
UGT1A6 (HEK293); 20 mM saccharolactone
  5-HT glucuronidation, % of the control activity (measured at 0 mM): 90±7%
UGT1A6 (HEK293); UGT1A6 expressed in mammalian (HEK293) cells, saccharolactone up to 20 mM
  effect on 5-hydroxytryptamine glucuronidation: no effect
UGT1A9; 5 mM saccharolactone
  Salicylic Acid glucuronidation, % of the control activity (measured at 0 mM): 96±7%
UGT1A9; 20 mM saccharolactone
  Salicylic Acid glucuronidation, % of the control activity (measured at 0 mM): 99±7%
[4]; 1 mM saccharolactone
  AZT glucuronidation, % of the control activity (measured at 0 mM): 96±2%
[4]; 2 mM saccharolactone
  AZT glucuronidation, % of the control activity (measured at 0 mM): 98±2%
[4]; 5 mM saccharolactone
  AZT glucuronidation, % of the control activity (measured at 0 mM): 94±2%
[4]; 10 mM saccharolactone
  AZT glucuronidation, % of the control activity (measured at 0 mM): 94±3%
[4]; 20 mM saccharolactone
  AZT glucuronidation, % of the control activity (measured at 0 mM): 94±1%
